Columns and labels:
[1] = system: arteriosclerotic plaque of WHHL rabbits; test: MRT visualization of arteriosclerotic plaque after intravenous administration; format: in vivo, Watanabe rabbits; conditions: 50 μmol of Gd/kg i.v., 6 or 24 hours after administration
Method: The pictures of FIG. 3 show MR images of the aorta 6 or 24 hours after intravenous administration of 50 μmol of Gd/kg of body weight of the title substances from Example 1d) and Example 14c in Watanabe rabbits (WHHL rabbits; genetically-induced arteriosclerosis) and in control animals without arteriosclerosis (white New Zealanders). […] The localization of the plaque, especially in the aortic arch as well as in the vascular passages, was confirmed by means of Sudan-3 staining. With this test, the suitability of the compounds according to the invention as markers for arteriosclerotic plaque could be shown.

[2] = system: mice; test: Acute toxicity after one-time intravenous administration in mice (preliminary); format: in vivo; conditions: one-time i.v., observation period of 7 days
Method: After intravenous administration of the gadolinium complexes of the title substances of Examples 1d, 5c, 14c, 15c in mice (n=3; rate of injection: 2 ml/min), the acute systemic compatibility (LD50) was determined preliminarily. In each case, several dosages with an observation period of 7 days were examined. The acute toxicities that are to be expected can be seen in Table 1.

[3] = Excretion after intravenous administration in rats (ICP-AES); format: in vivo; conditions: 50 μmol of total gadolinium/kg i.v., 14 days after administration
Method: After intravenous administration of 50 μmol of total gadolinium/kg of body weight of the gadolinium complexes of the title substances of Examples 1d, 5c, 14c, 15c in rats (n=3), the metal content was determined in fractions up to 14 days after administration by means of atom emission spectrometry (ICP-AES) in the excretion media of urine and feces, as well as in the body (the rest of the body).

[4] = Relaxivity (T1 and T2 relaxation times) in water, NMR pulse spectrometer Minispec PC 20; format: physicochemical; conditions: 40° C., 0.47 T
Method: (§1) The T1 and T2 relaxation times of water and plasma (bovine) with increasing concentrations of the gadolinium complexes of the title substances of Examples 1d, 5c, 14c, 15c contained therein were determined at 40° C. with use of an NMR pulse spectrometer (Minispec PC 20) at 0.47 T. The results are set forth in Table 1.

[5] = Relaxivity (T1 and T2 relaxation times) in plasma (bovine), NMR pulse spectrometer Minispec PC 20; format: physicochemical; conditions: 40° C., 0.47 T
Method: as §1

[6] = system: VX2-tumor-carrying rabbits; test: MRT visualization of lymph node metastases and primary tumors in VX2-tumor-carrying rabbits; format: in vivo; conditions: rabbits with i.m. implanted VX2 tumors, 50 μmol of Gd/kg i.v.
Method: The pictures of FIGS. 1 and 2 show MR images of iliac lymph nodes precontrast as well as up to 24 hours after intravenous administration of 50 μmol of Gd/kg of body weight of the title substance of Example 1d) in rabbits with i.m. implanted VX2 tumors. […] Zones where there was no signal rise within the lymph node were diagnosed as metastases and confirmed histologically (H/E staining of the lymph node sections) (FIG. 1).
At later times (24 hours p.i.), this enhancement also propagates toward the center of the tumor.

[7] = Plasma kinetics after intravenous administration in rats (ICP-AES); format: in vivo; conditions: 50 μmol of total gadolinium/kg i.v.; for Elimination Half-Life of Blood: calculated with WinNonlin from plasma concentrations
Method: After intravenous administration of 50 μmol of total gadolinium/kg of body weight of the gadolinium complexes of the title substances of Examples 1d, 5c, 14c, 15c in rats (n=3), blood samples were taken via a catheter in the common carotid artery at different points in time ([…].), the metal content was determined by means of atom emission spectrometry (ICP-AES) and converted to plasma values via a conversion factor (0.625). The elimination half-life was calculated by means of special software (WinNonlin) from the plasma concentrations.

[8] = system: inflammatory muscle lesions and necrotic areas; test: MRT visualization of inflammatory lesions and necrotic areas in rats; format: in vivo; conditions: Rose Bengal/xenon lamp induced lesion, 50 μmol of Gd/kg i.v.
Method: By way of example, the pictures of FIG. 4 show MR images of inflammatory muscle lesions as well as necrotic areas at different points in time after intravenous administration of 50 μmol of Gd/kg of body weight of the title substance of Example 14c in rats. The inflammation/necrosis was induced by intravenous administration of Rose Bengal (20 mg/kg; 24 hours before the administration of contrast medium) and subsequent 20-minute irradiation with a xenon lamp.

[9] = system: popliteal lymph nodes; test: MRT visualization of lymph nodes after intravenous administration in rats; format: in vivo; conditions: 50 μmol of Gd/kg i.v., up to 60 minutes p.i.
Description: By way of example, the pictures show MR images of popliteal lymph nodes at different points in time after intravenous administration of 50 μmol of Gd/kg of body weight of the title substance from Example 5c), title substance from Example 14c) and title substance from Example 15c) in rats.

Structure (SMILES)	signal rise in the arteriosclerotic plaque, T1-weighted inversion-recovery MR images of the aorta [1]	LD50 Mouse [2]	Body Retention 14 days [3]	Relaxivity R1(w) = R1-relaxivity in water [4]	Relaxivity R1(p) = R1-relaxivity in plasma [5]	signal rise in healthy lymph node tissue (iliac lymph nodes), T1-weighted turbo-spin-echo MR images ([6]; 15 to 60 minutes p.i.)	enhancement in the primary tumor, MR images ([6]; immediately after administration)	Gd Content of Blood 24 Hours p.i. [7]	Elimination Half-Life of Blood [7]	signal rise in the central necrosis, T1-weighted turbo-spin-echo MR images ([8]; 24 hours p.i.)	signal rise in the inflammatorily altered tissue, T1-weighted turbo-spin-echo MR images ([8]; up to 60 minutes p.i.)	signal rise in the functional lymph node tissue (popliteal lymph nodes), T1-weighted turbo-spin-echo MR images [9]
CC(C(=O)NCC(=O)NCCN(CCC(F)(F)C(F)(F)C(F)(F)C(F)(F)C(F)(F)C(F)(F)C(F)(F)C(F)(F)F)C(=O)CO[C@H]1O[C@H](CO)[C@@H](O)[C@H](O)[C@@H]1O)N1CCN(CC(=O)[O-])CCN(CC(=O)[O-])CCN(CC(=O)[O-])CC1.[Gd+3] (stereo partly drawn) [Example 1, N-{[1,4,7-Tris-(carboxylatomethyl)-1,4,7,10-tetracyclododecane-10-N-(pentanoyl-3-aza-4-oxo-5-methyl-5-yl)]-2-aminoethyl}-N-(1H,1H,2H,2H-perfluorodecyl)-2-(1-O-α-d-mannopyranosyl)-acetamide, Gd Complex]	strong signal rise	>10 mmol/kg	0.0%	R1(w): 22.7 1/(mmol * s)	R1(p): 25.8 1/(mmol * s)	strong signal rise	clear enhancement	0.7%	4.8 h	–	–	–
COCCOCCOCCOCC(=O)N(CCNC(=O)CNC(=O)C(C)N1CCN(CC(=O)[O-])CCN(CC(=O)[O-])CCN(CC(=O)[O-])CC1)CCC(F)(F)C(F)(F)C(F)(F)C(F)(F)C(F)(F)C(F)(F)C(F)(F)C(F)(F)F.[Gd+3] (centres unmarked) [Example 14, N-{[1,4,7-Tris-(carboxylatomethyl)-1,4,7,10-tetraazacyclododecane-10-N-(pentanoyl-3-aza-4-oxo-5-methyl-5-yl)]-2-aminoethyl}-N-(1H,1H,2H,2H-perfluorodecyl)-2-{-2-[2-(2-methoxyethoxy)-ethoxy]-ethoxy}-acetamide, Gd Complex]	strong signal rise	7.5 mmol/kg	0.0%	R1(w): 18.6 1/(mmol * s)	R1(p): 25.5 1/(mmol * s)	–	–	0.0%	1.1 h	delayed signal rise	strong signal rise	strong signal rise
COCCOCCOCC(=O)N(CCNC(=O)CNC(=O)C(C)N1CCN(CC(=O)[O-])CCN(CC(=O)[O-])CCN(CC(=O)[O-])CC1)CCC(F)(F)C(F)(F)C(F)(F)C(F)(F)C(F)(F)C(F)(F)C(F)(F)C(F)(F)F.[Gd+3] (centres unmarked) [Example 5, N-{[1,4,7-Tris-(carboxylatomethyl)-1,4,7,10-tetraazacyclododecane-10-N-(pentanoyl-3-aza-4-oxo-5-methyl-5-yl)]-2-aminoethyl}-N-(1H,1H,2H,2H-perfluorodecyl)-2-[2-(2-methoxyethoxy)-ethoxy]-acetamide, Gd Complex]	–	–	0.0%	R1(w): 18.9 1/(mmol * s)	R1(p): 24.8 1/(mmol * s)	–	–	0.0%	0.8 hour hours	–	–	strong signal rise
COCCOCC(=O)N(CCNC(=O)CNC(=O)C(C)N1CCN(CC(=O)[O-])CCN(CC(=O)[O-])CCN(CC(=O)[O-])CC1)CCC(F)(F)C(F)(F)C(F)(F)C(F)(F)C(F)(F)C(F)(F)C(F)(F)C(F)(F)F.[Gd+3] (centres unmarked) [Example 15, N-{[1,4,7-Tris-(carboxylatomethyl)-1,4,7,10-tetraazacyclododecane-10-N-(pentanoyl-3-aza-4-oxo-5-methyl-5-yl)]-2-aminoethyl}-N-(1H,1H,2H,2H-perfluorodecyl)-2-(2-methoxyethoxy)-acetamide, Gd Complex]	–	>10 mmol/kg	0.0%	R1(w): 17.2 1/(mmol * s)	R1(p): 24.6 1/(mmol * s)	–	–	0.2%	4.8 h	–	–	strong signal rise

— patent US7618957B2, “Perfluoroalkyl-containing complexes, process for their production as well as their use” (Bayer Schering Pharma Aktiengesellschaft, priority 2005, dated 2009)
